Where “and” joins values, the source holds several entries; their conditions need not be identical. Identical values can stand only once.
Tests used:
[1] = target: Ribosomal protein S6 kinase alpha-1 (Homo sapiens) (UniProt Q15418); assay: Enzymatic radiometric [Km ATP] KinaseProfiler LeadHunter assay, kinase: Rsk1, catalogue number: 14-509KP The assay has been performed by Eurofins Discovery.; details: ATP concentration 45.0 uM, Test compound concentration 10.0 uM
[2] = target: Tyrosine-protein kinase Lyn (Homo sapiens) (UniProt P07948); assay: Enzymatic radiometric [Km ATP] KinaseProfiler LeadHunter assay, kinase: Lyn, catalogue number: 14-510KP The assay has been performed by Eurofins Discovery.; details: ATP concentration 70.0 uM, Test compound concentration 10.0 uM
[3] = target: Serine/threonine-protein kinase 10 (Homo sapiens) (UniProt O94804); assay: Enzymatic radiometric [Km ATP] KinaseProfiler LeadHunter assay, kinase: LOK, catalogue number: 14-686KP The assay has been performed by Eurofins Discovery.; details: ATP concentration 120.0 uM, Test compound concentration 10.0 uM
[4] = target: T1, Mitogen-activated protein kinase kinase kinase 5 (Homo sapiens) (UniProt Q99683); assay: Enzymatic radiometric [Km ATP] KinaseProfiler LeadHunter assay, kinase: ASK1, catalogue number: 14-606KP The assay has been performed by Eurofins Discovery.; details: ATP concentration 200.0 uM, Test compound concentration 10.0 uM
T1 sequence (whole entry): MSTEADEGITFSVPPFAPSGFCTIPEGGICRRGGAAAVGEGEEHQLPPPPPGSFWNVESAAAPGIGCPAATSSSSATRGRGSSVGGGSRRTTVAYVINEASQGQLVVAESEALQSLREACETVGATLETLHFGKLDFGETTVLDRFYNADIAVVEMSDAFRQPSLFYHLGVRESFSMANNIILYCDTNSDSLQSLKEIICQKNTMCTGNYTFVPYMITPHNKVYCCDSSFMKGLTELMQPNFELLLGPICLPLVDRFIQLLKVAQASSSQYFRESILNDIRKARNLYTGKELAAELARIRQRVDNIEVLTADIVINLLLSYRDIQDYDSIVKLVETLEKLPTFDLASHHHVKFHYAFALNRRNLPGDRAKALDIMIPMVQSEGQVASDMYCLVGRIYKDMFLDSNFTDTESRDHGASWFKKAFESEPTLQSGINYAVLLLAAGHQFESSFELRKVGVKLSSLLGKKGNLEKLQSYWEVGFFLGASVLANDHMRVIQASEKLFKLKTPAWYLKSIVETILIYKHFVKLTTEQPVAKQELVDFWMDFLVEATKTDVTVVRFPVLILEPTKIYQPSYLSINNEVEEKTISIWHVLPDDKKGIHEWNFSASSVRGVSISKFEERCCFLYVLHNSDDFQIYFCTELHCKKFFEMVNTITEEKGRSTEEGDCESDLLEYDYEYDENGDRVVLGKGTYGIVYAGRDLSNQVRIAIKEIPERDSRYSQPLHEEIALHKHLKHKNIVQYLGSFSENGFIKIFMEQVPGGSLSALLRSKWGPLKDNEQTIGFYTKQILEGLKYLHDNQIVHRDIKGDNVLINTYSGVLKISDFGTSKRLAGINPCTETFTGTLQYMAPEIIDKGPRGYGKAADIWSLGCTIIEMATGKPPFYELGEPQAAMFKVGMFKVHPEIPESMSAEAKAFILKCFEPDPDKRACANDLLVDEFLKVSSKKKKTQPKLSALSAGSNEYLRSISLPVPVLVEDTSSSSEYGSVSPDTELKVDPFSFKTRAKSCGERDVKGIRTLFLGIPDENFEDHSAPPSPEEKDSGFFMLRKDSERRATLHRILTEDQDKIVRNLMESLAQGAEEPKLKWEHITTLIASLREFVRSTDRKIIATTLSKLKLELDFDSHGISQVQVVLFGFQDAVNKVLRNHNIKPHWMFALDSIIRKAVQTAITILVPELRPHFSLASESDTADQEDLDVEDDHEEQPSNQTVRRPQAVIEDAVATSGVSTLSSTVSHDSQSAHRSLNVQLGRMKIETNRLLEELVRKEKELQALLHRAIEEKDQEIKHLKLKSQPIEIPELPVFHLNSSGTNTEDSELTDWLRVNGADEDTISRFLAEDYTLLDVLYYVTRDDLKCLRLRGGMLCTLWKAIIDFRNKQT

[5] = target: CDK6/cyclin D3 (Homo sapiens) (UniProt P30281+Q00534); assay: Enzymatic radiometric [Km ATP] KinaseProfiler LeadHunter assay, kinase: CDK6/cyclinD3, catalogue number: 14-519KP The assay has been performed by Eurofins Discovery.; format: protein-complex assay; details: ATP concentration 200.0 uM, Test compound concentration 10.0 uM
[6] = target: Protein kinase C alpha type (Homo sapiens) (UniProt P17252); assay: Enzymatic radiometric [Km ATP] KinaseProfiler LeadHunter assay, kinase: PKC-alpha, catalogue number: 14-484KP The assay has been performed by Eurofins Discovery.; details: ATP concentration 45.0 uM, Test compound concentration 10.0 uM
[7] = target: CDK9/cyclin T1 (Homo sapiens) (UniProt O60563+P50750); assay: Enzymatic radiometric [Km ATP] KinaseProfiler LeadHunter assay, kinase: CDK9/cyclin T1, catalogue number: 14-685KP The assay has been performed by Eurofins Discovery.; format: protein-complex assay; details: ATP concentration 45.0 uM, Test compound concentration 10.0 uM

Chain of Ribosomal protein S6 kinase alpha-1 (Homo sapiens) (Q15418 whole entry): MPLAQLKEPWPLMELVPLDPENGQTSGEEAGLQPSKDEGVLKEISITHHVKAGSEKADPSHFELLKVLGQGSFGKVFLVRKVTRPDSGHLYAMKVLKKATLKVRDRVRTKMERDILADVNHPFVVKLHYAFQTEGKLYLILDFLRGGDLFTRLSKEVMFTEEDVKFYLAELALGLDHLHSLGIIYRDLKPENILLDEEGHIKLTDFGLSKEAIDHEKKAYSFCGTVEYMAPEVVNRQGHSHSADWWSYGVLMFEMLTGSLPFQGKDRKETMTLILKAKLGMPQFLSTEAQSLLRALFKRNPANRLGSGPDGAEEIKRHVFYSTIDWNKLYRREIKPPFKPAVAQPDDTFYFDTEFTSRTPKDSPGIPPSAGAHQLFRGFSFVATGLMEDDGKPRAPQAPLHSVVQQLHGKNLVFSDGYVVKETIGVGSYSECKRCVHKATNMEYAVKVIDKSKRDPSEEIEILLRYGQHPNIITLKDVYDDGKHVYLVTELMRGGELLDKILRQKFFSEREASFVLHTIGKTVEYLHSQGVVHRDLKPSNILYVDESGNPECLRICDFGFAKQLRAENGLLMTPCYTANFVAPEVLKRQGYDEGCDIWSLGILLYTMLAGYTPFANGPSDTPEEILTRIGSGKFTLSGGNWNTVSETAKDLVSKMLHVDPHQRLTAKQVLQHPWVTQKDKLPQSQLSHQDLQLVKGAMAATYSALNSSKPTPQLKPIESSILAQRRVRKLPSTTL
Chain of Tyrosine-protein kinase Lyn (Homo sapiens) (P07948 2-512 limits assumed): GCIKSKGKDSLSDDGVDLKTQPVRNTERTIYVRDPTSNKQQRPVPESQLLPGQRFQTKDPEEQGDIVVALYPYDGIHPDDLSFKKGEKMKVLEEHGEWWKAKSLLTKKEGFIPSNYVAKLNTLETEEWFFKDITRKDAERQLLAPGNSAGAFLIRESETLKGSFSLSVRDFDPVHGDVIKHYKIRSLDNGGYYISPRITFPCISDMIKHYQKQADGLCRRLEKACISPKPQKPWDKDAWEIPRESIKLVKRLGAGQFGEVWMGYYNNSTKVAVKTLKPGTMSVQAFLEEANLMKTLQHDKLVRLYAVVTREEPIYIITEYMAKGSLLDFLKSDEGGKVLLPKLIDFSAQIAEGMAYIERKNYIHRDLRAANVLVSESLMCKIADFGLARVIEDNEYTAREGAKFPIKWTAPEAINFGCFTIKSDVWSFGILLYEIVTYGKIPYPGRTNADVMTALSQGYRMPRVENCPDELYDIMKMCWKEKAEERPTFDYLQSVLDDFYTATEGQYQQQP
Chain of Serine/threonine-protein kinase 10 (Homo sapiens) (O94804 whole entry, looked up): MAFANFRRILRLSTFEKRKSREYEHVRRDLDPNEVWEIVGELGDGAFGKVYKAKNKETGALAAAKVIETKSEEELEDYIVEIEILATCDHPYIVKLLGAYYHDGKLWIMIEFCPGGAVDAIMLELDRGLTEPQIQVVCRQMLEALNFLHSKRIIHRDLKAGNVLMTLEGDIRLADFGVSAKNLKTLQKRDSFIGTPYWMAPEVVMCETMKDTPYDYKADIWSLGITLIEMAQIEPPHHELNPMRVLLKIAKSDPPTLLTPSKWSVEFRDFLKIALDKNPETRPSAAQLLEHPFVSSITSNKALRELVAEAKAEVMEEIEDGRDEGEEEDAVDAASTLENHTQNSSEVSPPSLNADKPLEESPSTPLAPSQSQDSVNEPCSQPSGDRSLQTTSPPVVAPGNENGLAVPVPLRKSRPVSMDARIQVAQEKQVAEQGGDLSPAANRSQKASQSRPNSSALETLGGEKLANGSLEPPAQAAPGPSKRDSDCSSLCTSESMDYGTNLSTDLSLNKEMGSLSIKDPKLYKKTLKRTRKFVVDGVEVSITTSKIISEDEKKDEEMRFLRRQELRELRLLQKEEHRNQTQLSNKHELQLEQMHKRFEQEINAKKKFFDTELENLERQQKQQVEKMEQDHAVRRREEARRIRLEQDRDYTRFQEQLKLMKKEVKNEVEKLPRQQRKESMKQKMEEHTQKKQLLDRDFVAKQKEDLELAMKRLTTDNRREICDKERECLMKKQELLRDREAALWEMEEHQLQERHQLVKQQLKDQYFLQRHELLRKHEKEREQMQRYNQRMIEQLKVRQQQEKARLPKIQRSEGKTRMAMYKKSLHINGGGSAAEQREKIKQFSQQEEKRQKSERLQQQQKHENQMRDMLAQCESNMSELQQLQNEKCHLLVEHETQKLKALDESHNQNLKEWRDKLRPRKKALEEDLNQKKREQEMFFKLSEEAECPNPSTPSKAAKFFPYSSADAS

SMILES	Activity [1] [%]	Activity [2] [%]	Activity [3] [%]	Activity [4] [%]	Activity [5] [%]	Activity [6]	Activity [7] [%]
CNC(=O)Cn1cc(-c2cc3c(N[C@@H](c4ccc5c(c4)S(=O)(=O)CCC5)C(C)C)ncnc3[nH]2)cn1	94	75	83	103	107	95%	61
CC(C)[C@@H](Nc1ncnc2[nH]c(C(=O)N[C@@H]3CCN(C)C3)cc12)c1ccc2c(c1)S(=O)(=O)CCC2	94	107	99	105	99	101%	108
CC(C)[C@@H](Nc1ncnc2[nH]ccc12)c1ccc2c(c1)S(=O)(=O)CCC2	92	112	104	108	99	104%	114
COc1ccc([C@@H](Cc2nnn[nH]2)NC(=O)c2ncnc3[nH]ccc23)cc1	98	111	96	101	100	95%	117
CC(C)[C@H](Nc1ncnc2[nH]ccc12)c1ccc2c(c1)S(=O)(=O)CCC2	102	104	102	105	105	98%	112
CC(C)[C@@H](Nc1ncnc2[nH]c(-c3cnn(C)c3C#N)cc12)c1ccc2c(n1)OCCO2	–	–	–	–	–	90% and 99%	–
CC(C)[C@H](Nc1ncnc2[nH]c(-c3cnn(C)c3C#N)cc12)c1ccc2c(n1)OCCO2	120	79	45	106	102	–	79
Cn1ncc(-c2cc3c(N[C@@H](c4ccc5c(n4)OCCO5)C(C)(C)C)ncnc3[nH]2)c1C#N	136	101	122	108	–	87%	130
CNCc1cc(-c2cc3c(N[C@@H](c4ccc5c(c4)S(=O)(=O)CCC5)C(C)C)ncnc3[nH]2)co1	90	47	92	–	92	99%	40
Cc1nn(C)cc1-c1cc2c(N[C@H](c3ccc4c(c3)S(=O)(=O)CCC4)C(C)C)ncnc2[nH]1	110	48	93	103	106	93%	57
COc1ccc([C@H](Cc2nnn[nH]2)NC(=O)c2ncnc3[nH]ccc23)cc1	102	108	102	103	102	93%	109
C[C@H](C(=O)O)[C@@H](NC(=O)c1ncnc2[nH]ccc12)c1ccc(Br)cc1	88	94	97	102	97	108%	103
